Results: article PMC9179341, “Design of New Potent and Selective Thiophene-Based KV1.3 Inhibitors and Their Potential for Anticancer Activity” (Cancers, 2022)
Entries after “also recorded” stand apart in the source; their conditions may differ.

Key:
Assay type in all cases: cell-based
KV1.3 [1] = molecular target: T1, KV1.3 (Homo sapiens, UniProt P22001); test: KV1.3 inhibition, manual voltage-clamp on Xenopus laevis oocytes; details: for inhibition at 10 µM: manual voltage-clamp on Xenopus laevis oocytes; for IC50: KV1.3, manual voltage-clamp, Xenopus laevis oocytes
Description: (§1) Stage V–VI oocytes were isolated by partial ovariectomy from Xenopus laevis frogs (African clawed frogs). […] After anaesthetizing the frogs by a 15-min submersion in 0.1% tricaine methanesulfonate (amino benzoic acid ethyl ester; Merck, Kenilworth, NJ, USA), pH 7.0, the oocytes were collected. The isolated oocytes were then washed with a 1.5 mg/mL collagenase solution for 2 h to remove the follicle layer.
(§2) Ion channels (Kv1.x, Kv2.1, Kv4.2, Kv10.1) were expressed in Xenopus laevis oocytes by linearization of the plasmids and subsequent in vitro transcription using a commercial T7 or SP6 mMESSAGE mMACHINE transcription kit (Ambion, Carlsbad, California, USA). Defolliculated Xenopus oocytes were then injected with 20–50 nL of the cRNA at a concentration of 1 ng/nL using a micro-injector (Drummond Scientific1, Broomall, PA, USA). The oocytes were incubated in a solution containing (in mM): NaCl, 96; KCl, 2; CaCl2, 1.8; MgCl2, 2 and HEPES, 5 (pH 7.5), supplemented with 50 mg/L gentamycin sulfate and 90 mg/L theophylline.
(§3) Two-electrode voltage-clamp recordings were performed at room temperature (18–22 °C) using a Geneclamp 500 amplifier (Molecular Devices, San Jose, CA, USA) and pClamp data acquisition (Axon Instruments, Union City, CA, USA) and using an integrated digital TEVC amplifier controlled by HiClamp, an automated Voltage-Clamp Screening System (Multi Channel Systems MCS GmbH, Reutlingen, Germany). Whole-cell currents from oocytes were recorded 1–4 days after injection. The bath solution composition was ND96 (in mM): NaCl, 96; KCl, 2; CaCl2, 1.8; MgCl2, 2 and HEPES, 5 (pH 7.5). Voltage and current electrodes were filled with a 3 M solution of KCl in H2O. […] The elicited Kv1.x, Kv2.1, Kv4.2 and Kv10.1 currents were filtered at 0.5 kHz and sampled at 2 kHz using a four-pole low-pass Bessel filter. Leak subtraction was performed using a P/4 protocol.
(§4) For the electrophysiological analysis of the compounds, a number of protocols were applied from a holding potential of −90 mV. Currents for Kv1.x, Kv2.1, Kv4.2 and Kv10.1 were evoked by 1 s depolarizing pulses either to 0 mV or to a range of voltage steps between −80 mV and +40 mV. For the analysis of the data, only the inhibition at the 0 mV step was used. The concentration dependency of all compounds was assessed by measuring the current inhibition in the presence of increasing compound concentrations. […] From this stock solution, adequate dilutions with a maximum of 0.5% DMSO were made for testing.
(§5) All electrophysiological data (Figure S1) are presented as means ± S.E.M of n ≥ three independent experiments unless otherwise indicated. […] The Dunnett test and one-way ANOVA were performed to calculate the significance of the induced inhibition compared to the control.

KV1.3 [2] = molecular target: T1, KV1.3; test: KV1.3 inhibition, HiClamp on Xenopus laevis oocytes; details: Xenopus laevis oocytes (marked * in Table 2)
Description: as §1, §2, §3, §4, §5

Panc-1 cells = test: Cell proliferation (culture confluency, IncuCyte) in 2D culture, Panc-1; details: 100 µM, confluence by live cell imaging
Description: Cell lines Panc-1 (ACC 783) and Colo-357 (CVCL_0221) were obtained through the validated collection of the pHioniC consortium (MSC-ITN 813834). Both cell lines were grown in RPMI1640, supplemented with 1 mM sodium pyruvate and 1% Glutamax (all Gibco Thermo-Fisher, Waltham, MA USA) 10%FBS (BioChrom, Berlin, Germany), at 5% CO2 and 37 °C in a humidified atmosphere.
For cell proliferation assays, cells were seeded at a density of 10,000 cells/well in 96-well flat bottom culture plates (Corning, Kaiseslautern, Germany) and proliferation was measured through culture confluency using an IncuCyte device (Sartorius, Göttingen, Germany). Every hour, two phase contrast images per well were acquired, and a confluency mask was generated by training the analysis algorithm using representative images. Every image was then analyzed using the obtained parameters to determine culture confluency. Treatments were then added when cells reached a confluency of ~30% (Panc-1) or ~55% (Colo-357), and proliferation was determined for the following 60 h. Proliferation is reported as confluency increase with respect to the start of the treatment.

T1 sequence (P22001 whole entry): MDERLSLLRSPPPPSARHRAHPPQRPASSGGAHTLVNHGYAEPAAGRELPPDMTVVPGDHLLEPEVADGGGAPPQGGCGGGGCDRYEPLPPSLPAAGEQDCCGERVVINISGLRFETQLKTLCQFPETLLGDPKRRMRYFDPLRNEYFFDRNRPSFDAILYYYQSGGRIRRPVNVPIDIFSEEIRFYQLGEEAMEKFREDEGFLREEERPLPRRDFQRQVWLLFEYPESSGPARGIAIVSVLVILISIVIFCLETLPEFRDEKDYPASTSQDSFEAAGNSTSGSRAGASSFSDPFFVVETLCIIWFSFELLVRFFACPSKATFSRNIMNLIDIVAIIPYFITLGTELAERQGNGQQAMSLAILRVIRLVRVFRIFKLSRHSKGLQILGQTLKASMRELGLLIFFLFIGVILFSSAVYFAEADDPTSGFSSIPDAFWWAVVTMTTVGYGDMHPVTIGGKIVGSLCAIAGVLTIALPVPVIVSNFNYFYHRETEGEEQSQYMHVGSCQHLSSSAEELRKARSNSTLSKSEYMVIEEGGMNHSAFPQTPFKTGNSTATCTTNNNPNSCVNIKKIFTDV

| inhibition at 10 µM (KV1.3 [1]) [%] | IC50 (KV1.3 [1]) [nM] | IC50 (KV1.3 [2]) [nM] | Compound | Growth (proliferation) inhibition of Panc-1 cells (Panc-1 cells) |
| --- | --- | --- | --- | --- |
| 92 ± 4 | 570 | 1030 ± 30 | COc1ccccc1C(=O)NCC1(c2cccs2)CCOC1 (stereo not shown) [Compound 14] | significantly inhibited; also recorded: strong inhibition |
| 94 ± 1 | 3960 ± 470 | 1970 | COc1ccc(F)cc1C(=O)NCC1(c2ccccc2)CCOCC1 [Compound 37] | significantly inhibited; also recorded: strong inhibition |
| 92 ± 1 | 590 | 1200 ± 20 | COc1ccccc1C(=O)NCC1(c2cccs2)CCOCC1 [Compound 43] | significantly inhibited; also recorded: strong inhibition |
| 96 ± 1 | 470 | 1990 ± 610 | COc1ccccc1C(=O)NCC1(c2ccsc2)CCOCC1 [Compound 44] | significantly inhibited; also recorded: moderate growth inhibition |
